{
  "source": "patent US8481546B2",
  "about": "“CGRP receptor antagonist” (Bristol-Myers Squibb Company, priority 2010, dated 2013)",
  "key": {"[1]": {"test": "Aqueous solubility, pH dependence", "format": "physicochemical", "procedure": "Solid free base was mixed with carbonate, and ethanolamine buffers. The pH of a third sample was adjusted with HCl. The solids were mixed with the vehicles using a mixer that was enclosed within an incubator set to 25 C. After equilibration, samples of the supernatant were withdrawn, diluted as appropriate, and analyzed by HPLC.\nCrystalline Compound I converted to a gelatinous phase during measurement of the pH solubility profile. The absence of a crystalline phase in equilibrium with water prevents a confident assessment of the pH range in which Compound I can be formulated as a thermodynamically stable solution. Efforts to generate a crystalline free base form of Compound I that can be equilibrated in water are ongoing."}, "[2]": {"molecular_target": "T1, CGRP receptor, SK-N-MC cell membrane preparation (Homo sapiens, UniProt O60894+Q16602)", "T1 construct": "endogenous in cells; host or cells: SK-N-MC human neuroblastoma cells (membrane homogenate or attached whole cells)", "T1 sequence (Q16602 23-461)": "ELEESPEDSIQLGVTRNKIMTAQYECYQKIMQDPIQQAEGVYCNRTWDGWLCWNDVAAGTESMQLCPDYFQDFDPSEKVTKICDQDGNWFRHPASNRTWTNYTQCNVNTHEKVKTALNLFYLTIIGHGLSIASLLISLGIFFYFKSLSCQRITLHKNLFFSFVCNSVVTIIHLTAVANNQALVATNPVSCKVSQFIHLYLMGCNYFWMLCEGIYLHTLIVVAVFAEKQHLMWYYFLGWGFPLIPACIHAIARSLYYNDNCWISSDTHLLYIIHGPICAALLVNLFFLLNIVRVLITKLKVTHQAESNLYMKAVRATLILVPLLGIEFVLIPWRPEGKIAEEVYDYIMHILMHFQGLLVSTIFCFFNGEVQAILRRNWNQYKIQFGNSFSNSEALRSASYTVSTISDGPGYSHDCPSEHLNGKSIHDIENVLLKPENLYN", "T1 sequence (O60894 27-148)": "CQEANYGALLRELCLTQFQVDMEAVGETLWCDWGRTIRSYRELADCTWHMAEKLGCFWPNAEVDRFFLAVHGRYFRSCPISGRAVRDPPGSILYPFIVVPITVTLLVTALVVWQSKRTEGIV", "test": "Saturation binding of [125I]CGRP with or without Compound I", "procedure": "The nature of the interaction between the endogenous CGRP peptide and Compound I is studied in detail using saturation binding experiments. Briefly, the binding of [^125I]CGRP to the SK-N-MC cell membrane preparation is measured with increasing concentration of [^125I]CGRP without (control condition) or in the presence of (test conditions) one of the two concentrations (30 pM and 100 pM) of Compound I. Saturation data are analyzed with hyperbolic equations using Kell software (Biosoft, Cambridge, UK) to estimate dissociation constant (Kd) and the maximum number of binding sites (Bmax). The impact of the addition of Compound I to the binding parameters (Kd, Bmax) of [^125I]CGRP is measured and compared."}, "[3]": {"molecular_target": "T2, CGRP receptor in attached whole SK-N-MC cells (Homo sapiens, UniProt O60894+Q16602)", "T2 construct": "endogenous in cells; host or cells: SK-N-MC human neuroblastoma cells (membrane homogenate or attached whole cells)", "T2 sequence (Q16602 23-461)": "as the sequence (Q16602 23-461) above", "T2 sequence (O60894 27-148)": "as the sequence (O60894 27-148) above", "test": "Cellular functional assay, cyclic AMP assay", "format": "cell-based", "settings": "0.3 nM CGRP", "procedure": "The CGRP receptor complex is coupled to the Gs class of G proteins. Binding of CGRP to this complex leads to the production of cyclic AMP (adenosine 3′S′-cyclic monophosphate) via Gs-dependent activation of adenylate cyclase.\nFunctional antagonism by Compound I is determined by measuring its ability to inhibit CGRP-stimulated formation of cyclic AMP in attached whole SK-N-MC cells. SK-N-MC cells are incubated at room temperature with 0.3 nM CGRP alone for 30 minutes, or pre-incubated with various concentrations of Compound I for 15 minutes before the addition of 0.3 nM CGRP and then further incubated for 30 minutes. The Cyclic AMP (cAMP) produced is extracted using the “Lysis Reagent” and its concentration is determined by radioimmunoassay using RPA559 cAMP SPA Direct Screening Assay Kit (Amersham Pharmacia Biotech). IC50 values are defined as the concentration of compound required to inhibit 50% of 0.3 nM CGRP-stimulated cAMP production. Ymax is defined as maximal percent inhibition of 0.3 nM CGRP-stimulated cAMP production."}, "[4]": {"test_system": "CGRP-induced increases in marmoset facial blood flow", "test": "Marmoset facial blood flow", "format": "in vivo, common marmosets (Callithrix jacchus)", "procedure": "To evaluate the in vivo efficacy of novel CGRP receptor antagonists, marmosets receive a series of four intravenous injections of hαCGRP (at 45 min intervals). The first serves as a baseline control, and is followed by subcutaneous delivery of test article. The subsequent three CGRP challenges provide an assessment of functional CGRP antagonism in vivo.\nAdult male and female common marmosets (Callithrix jacchus) weighing 350-650 g serve as subjects.\nAnimals are anesthetized by isoflurane inhalation in an induction chamber (4-5% rapid induction, maintained with 1-2.5%; Solomon et al., 1999). Anesthesia is maintained by delivering a constant supply of air:oxygen (50:50) and isoflurane via intubation and ventilation (with blood gas monitoring). Body temperature is maintained at 38±0.5° C. by placement on an automated temperature controlled surface with rectal probe. A small area of fur (approx. 1.5 cm square) is removed from one or both sides of the face by application of a depilatory cream and/or shaving. Surgical areas are clipped and prepared with betadine. An IV line is placed in the saphenous vein for the administration of test compounds and the CGRP receptor agonist hαCGRP. Additionally this IV line provides for withdrawal of blood samples (max 2.5 ml, 10%) for blood gas monitoring and analysis of compound plasma levels. A solution of 5% dextrose is administered IV in order to maintain blood sugar levels. Anesthesia depth is monitored by measuring blood pressure and heart rate using a non-invasive arm cuff method and a pulse oximeter, respectively. […] Microvascular blood flow is monitored by attaching a self adhesive laser Doppler flow probe to the facial skin. The probe records the number of red blood cells crossing the path of two laser beams, multiplied by their velocity (reported as changes in flux).\nTest compounds are administered SC (0.1-0.6 ml/kg) in the nape of the neck. The CGRP-receptor agonist, hαCGRP is delivered IV (1 ml/kg) at a dose of 10 μg/kg.\nTo assess in vivo efficacy and duration of action, a control increase in facial blood flow is induced by administration of hαCGRP (10 μg/kg IV) 30 min prior (−0.5 hr) to drug delivery. Compound I is then administered at time zero (0 min) and repeat hαCGRP are delivered at 45 min intervals for ˜2 hr (data collected at 0.25, 1 and 1.75 hrs post-dose). Compound I is dosed at 0.003, 0.01 and 0.03 mg/kg, SC. Plasma samples are obtained just before each hαCGRP administration. Following testing, animals are returned to the transport cage which is placed on a temperature controlled surface that keep the animals warm until fully awake and ambulatory. Animals may be tested again after a 14-21 day rest and washout period."}, "[5]": {"test_system": "olfactory epithelium (nasal turbinates)", "format": "in vivo, rats", "excerpt": "Compound I and Compound II were also compared directly for intranasal irritation. […] The only endpoint evaluated in this study was histological evaluation of the nasal turbinates."}, "[6]": {"settings": "in the presence of 30 pM Compound I"}, "[7]": {"settings": "in the presence of 100 pM Compound I"}, "[8]": {"settings": "marmoset, efficacy vs. exposure"}, "[9]": {"settings": "25 μL/nostril, 75 mg/ml, 3.75 mg/rat/day (0.268 mg/cm^2)"}, "[10]": {"settings": "25 μL/nostril, 175 mg/ml, 8.75 mg/rat/day (0.625 mg/cm^2)"}, "[11]": {"settings": "100 μL/nostril, 175 mg/ml, 35 mg/rat/day (2.500 mg/cm^2)"}},
  "note": "Where two headings read alike, the source gives them in different places.",
  "data": [
    {"compound": "Cc1cc(C[C@@H](NC(=O)N2CCC(c3cc4ccccc4[nH]c3=O)CC2)C(=O)N2CCN(C3CCN(C)CC3)CC2)cc2cn[nH]c12", "note": "[Compound I, (R)—N-(3-(7-methyl-1H-indazol-5-yl)-1-(4-(1-methylpiperidin-4-yl)piperazin-1-yl)-1-oxopropan-2-yl)-4-(2-oxo-1,2-dihydroquinolin-3-yl)piperidine-1-carboxamide]", "values": [
      {"measurement": "solubility", "setting": "[1]; Partial titration of Compound I with HCl, pH = 8.5, 25 C", "value": 105, "unit": "mg/mL"},
      {"measurement": "solubility", "setting": "[1]; aqueous buffer, thermodynamic from solid, Carbonate buffer, pH = 10.4, 25 C, read-out: Solubility", "value": 0.2, "unit": "mg/mL"},
      {"measurement": "solubility", "setting": "[1]; aqueous buffer, thermodynamic from solid, Ethanolamine buffer, pH = 9.4, 25 C, read-out: Solubility", "value": 0.5, "unit": "mg/mL"},
      {"measurement": "solubility", "setting": "[1]; aqueous media, aqueous buffer, thermodynamic from solid, pH < 8.5, 25 C, read-out: Solubility", "value": "> 300", "unit": "mg/mL"},
      {"measurement": "Bmax of [125I]CGRP", "setting": "[2]; [6]", "value": "112.1 ± 20.6", "unit": "fmol/mg protein"},
      {"measurement": "Kd of [125I]CGRP", "setting": "[2]; [6]", "value": "0.058 ± 0.0196", "unit": "nM"},
      {"measurement": "Bmax of [125I]CGRP", "setting": "[2]; [7]", "value": "146.8 ± 6.4", "unit": "fmol/mg protein"},
      {"measurement": "Kd of [125I]CGRP", "setting": "[2]; [7]", "value": "0.1297 ± 0.0319", "unit": "nM"},
      {"measurement": "Ymax, maximal percent inhibition of CGRP-stimulated cAMP production", "setting": "[3]", "value": "95.4 (±1.3) %"},
      {"measurement": "IC50", "setting": "[3]; read-out: IC50, inhibition of CGRP-stimulated cAMP production", "value": "0.0386 ± 0.0042", "unit": "nM"},
      {"measurement": "inhibition of CGRP-induced increases in facial blood flow", "setting": "[4]; 0.003 mg/kg SC, at 0.25 hr", "value": 20, "unit": "%"},
      {"measurement": "inhibition of CGRP-induced increases in facial blood flow", "setting": "[4]; 0.003 mg/kg SC, later test times", "value": "no effect"},
      {"measurement": "inhibition of CGRP-induced increases in facial blood flow", "setting": "[4]; 0.01 mg/kg SC, across all post-dose test times", "value": "35-40%"},
      {"measurement": "inhibition of CGRP-induced increases in facial blood flow", "setting": "[4]; 0.03 mg/kg SC, at 0.25, 1 and 1.75 hr post-dose", "value": "53-80%"},
      {"measurement": "plasma levels associated with maximal efficacy", "setting": "[4]; [8]", "value": "≥ 25", "unit": "nM"},
      {"measurement": "plasma levels associated with significant in vivo efficacy", "setting": "[4]; [8]", "value": "≥ 8", "unit": "nM"},
      {"measurement": "Olfactory epithelial toxicity, number of animals with severity None", "setting": "[5]; 12.5 μL/nostril, 75 mg/ml, 1.875 mg/rat/day (0.134 mg/cm^2)", "value": 5},
      {"measurement": "Olfactory epithelial toxicity, number of animals with severity None", "setting": "[5]; 12.5 μL/nostril, 175 mg/ml, 4.375 mg/rat/day (0.313 mg/cm^2)", "value": 5},
      {"measurement": "Olfactory epithelial toxicity, number of animals with severity Minimal", "setting": "[5]; [9]", "value": 3},
      {"measurement": "Olfactory epithelial toxicity, number of animals with severity None", "setting": "[5]; [9]", "value": 2},
      {"measurement": "Olfactory epithelial toxicity, number of animals with severity Minimal", "setting": "[5]; [10]", "value": 1},
      {"measurement": "Olfactory epithelial toxicity, number of animals with severity None", "setting": "[5]; [10]", "value": 4},
      {"measurement": "Olfactory epithelial toxicity, number of animals with severity Slight", "setting": "[5]; 100 μL/nostril, 75 mg/ml, 15 mg/rat/day (1.071 mg/cm^2)", "value": 5},
      {"measurement": "Olfactory epithelial toxicity, number of animals with severity Mild", "setting": "[5]; [11]", "value": 4},
      {"measurement": "Olfactory epithelial toxicity, number of animals with severity Slight", "setting": "[5]; [11]", "value": 1}
    ]}
  ]
}
